From article PMC6349357, “Computational and experimental analysis of bioactive peptide linear motifs in the integrin adhesome” (PLoS ONE, 2019)
Marks after values point to notes of the source that are not given here.

Experiments:
[1] = system: resting platelets; experiment: Platelet aggregation induced by peptide in resting washed platelets (activation); format: cell-based, human (healthy volunteers); details: for Activation, 5μM / Activation, 20μM: S3 Table, n=3; for Activation, 5μM: peptide 5 μM; for Activation, 20μM: peptide 20 μM; for Activation: platelet aggregation in resting platelets after 6 minutes incubation with peptide, pal-peptides 20 μM, tat-peptides 50 μM, optical density, aggregometer, mean, n>=3; for Aggregation before TRAP activation, donor d: replicate donor d; for Aggregation before TRAP activation, donor d / Aggregation before TRAP activation, donor f / Aggregation before TRAP activation, donor g / Aggregation before TRAP activation, donor h / Aggregation before TRAP activation, donor i / Aggregation before TRAP activation, donor j: pal 20 μM, tat 50 μM; for Aggregation before TRAP activation, donor f: replicate donor f; for Aggregation before TRAP activation, donor g: replicate donor g; for Aggregation before TRAP activation, donor h: replicate donor h; for Aggregation before TRAP activation, donor i: replicate donor i; for Aggregation before TRAP activation, donor j: replicate donor j
Procedure, shortened: (§1)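 Aggregation was read by optical density at 37°C under 1100 rpm stirring. Samples were 3x10^5/μl washed human platelets, rested 45 min and supplemented with 1.8 mM calcium chloride. Peptide went in at 2 min, followed 6 min later by TRAP at an experiment-dependent concentration, with 7 min further recording.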

[2] = format: physicochemical
Procedure: Peptides were stored in powder form at -80°C. Prior to use, they were left at room temperature for one hour. They were then mixed with a specific volume of deionised water to bring them to a 1mM concentration and were then aliquoted and frozen at -80°C. They were thawed a single time before use and discarded after an experiment. Peptides which were not soluble in deionised water (pal-APTNEFYA, pal-LEEDDEEGE, pal-TNITYRGT and pal-KLLITIHDRKE) were dissolved in a 10% DMSO and 90% deionised water solution (leading to a final concentration of 0.2% DMSO when combined with platelets, see below). These peptides were further diluted during platelet aggregations.

[3] = system: TRAP-activated platelets; experiment: Inhibition of TRAP-induced platelet aggregation after pre-incubation with peptide; format: cell-based, human (healthy volunteers); details: for Aggregation after TRAP, peptide alone 1x (A 1x / B 1x) / Aggregation after TRAP, peptide alone 2x (A 2x / B 2x): TRAP 2 μM after 6 minutes pre-incubation, mean n = 3; for Aggregation after TRAP, peptide alone 1x (A 1x / B 1x): 4 μM pal-peptides, 10 μM tat-peptides; for Aggregation after TRAP, peptide alone 2x (A 2x / B 2x): double concentration of 4 μM (pal) / 10 μM (tat); for Aggregation after TRAP activation, donor d: replicate donor d; for Aggregation after TRAP activation, donor d / Aggregation after TRAP activation, donor f / Aggregation after TRAP activation, donor g / Aggregation after TRAP activation, donor h / Aggregation after TRAP activation, donor i / Aggregation after TRAP activation, donor j: pal 20 μM, tat 50 μM; for Aggregation after TRAP activation, donor f: replicate donor f; for Aggregation after TRAP activation, donor g: replicate donor g; for Aggregation after TRAP activation, donor h: replicate donor h; for Aggregation after TRAP activation, donor i: replicate donor i; for Aggregation after TRAP activation, donor j: replicate donor j
Procedure, shortened: as §1

[4] = system: tyrosine phosphorylation in platelets; experiment: Phosphotyrosine western blot (4G10) of platelets treated with peptide; format: cell-based, human (healthy volunteers); set-up: key to Phospho: R: in resting platelets; A: after TRAP activation; details: for Phospho: phosphorylation changes associated with peptide treatment, pal 20 μM, tat 50 μM, TRAP 4 μM
Procedure: A platelet concentration of 3x10^5 /μl was used when performing standard aggregations and a concentration of 1x10^6 /μl was used for sample preparation for western blot analysis. The extent of platelet aggregation was measured by quantifying the optical density of the samples using the Bio-Data PAP-8 aggregometer (platelet aggregation profiler, Horsham, PA, USA). A temperature of 37°C was maintained and samples were stirred using magnets spinning at 1100 rpm. 200 μl of washed platelets was added to each aggregation tube. Different volumes of buffer, peptide and TRAP were added to achieve the desired concentrations. Peptide/buffer was added to each well after two minutes. TRAP, with a final concentration depending on the experiment, was added 6 minutes later and data was collected for an additional 7 minutes.
After the aggregation step, tubes were immediately placed on ice. 27 μl of lysis buffer was then added and the tube was vortexed vigorously. Lysates were left on ice for one hour and vortexed frequently. Proteins were then centrifuged at 14,000 rcf for 10 minutes to remove debris. Samples were then mixed with 2x sample buffer. 50 μl each sample was added to 50 μl of sample buffer. The protein was then denatured by heating to 95°C for 5 minutes. 10 μl of lysate was kept for protein quantification. All samples and lysates were frozen at -80°C.
The Bradford assay was then performed on the lysates to determine protein concentration. Protein concentrations were measured using the Bio-Rad DC Protein Assay. A calibration was created using samples containing a known concentration of bovine serum albumin. These were prepared in advance by sequential dilutions with final concentrations of 1.5mg/ml, 1mg/ml, 0.8mg/ml, 0.6mg/ml, 0.4mg/ml, 0.2mg/ml, 0mg/ml. Samples were then dispensed into a 96 well plate and the Bio-Rad DC reagents were added as described in the protocol. Samples were left to rest for 15 minutes and were then read using 690 0.15 mode on the Wallac plate reader. A standard curve was calculated from the standard samples of known concentration and the y = ax+b equation was used to determine the concentration of the other samples.
Sodium Dodecyl Sulfate Polyacrylamide Gel Electrophoresis (SDS-PAGE) was performed to separate proteins by molecular weight. Polyacrylamide gels were prepared (see Reagents section). Samples or molecular markers were loaded in volumes to give 20 μg of protein. The gels were then run for approximately 80 minutes or until the samples reached the end of the gel. The proteins were then transferred to polyvinylidene difluoride (PVDF) membranes using a Bio-Rad Wet Blot Transfer Cell apparatus. During the transfer the membranes were submerged in 1x transfer buffer (10% 10x transfer buffer, 70% deionised water and 20% methanol). Transfer was performed either overnight at 40 volts at 4°C, or at 100 volts for 1 hour cooled with an ice block. After the transfer the membranes were blocked for 1 hour using 3% bovine albumin serum (BSA) dissolved in TBS-T. Membranes were incubated with 4G10 antibody with a 1:1000 dilution. Unbound primary antibody was washed off with TBS-T three times for 5 minutes each. Membranes were then incubated with anti-mouse IgG secondary antibody (Millipore) with a dilution of 1:30,000. Membranes were submerged in chemiluminescence ECL solution (Thermo Scientific). They were then measured using the western blot developer UVP. One image was taken every 80 seconds for 40 minutes. Numeric data was extracted from selected blots using ImageJ.

[5] = S3 Table, peptide 5 μM, aggregation after TRAP, n=3
[6] = S3 Table, peptide 20 μM, aggregation after TRAP, n=3
[7] = platelet aggregation induced by 4 μM TRAP in platelets pre-incubated with peptide (low value = inhibition), pal-peptides 20 μM, tat-peptides 50 μM, mean, n>=3

Row | Substance | Solubility in deionised water [2] | Activation, 5μM ([1]; unit assumed) | Activation, 20μM ([1]; unit assumed) | Activation ([1]; unit assumed) | Aggregation before TRAP activation, donor d [1] | Aggregation before TRAP activation, donor f [1] | Aggregation before TRAP activation, donor g [1] | Platelet aggregation remaining after TRAP (low = inhibition) [3, 5] | Platelet aggregation remaining after TRAP (low = inhibition) [3, 6] | Aggregation after TRAP, peptide alone 1x (A 1x / B 1x) [3] | Aggregation after TRAP, peptide alone 2x (A 2x / B 2x) [3] | Aggregation after TRAP activation, donor d ([3]; TRAP 4 μM) | Aggregation after TRAP activation, donor f ([3]; TRAP 4 μM) | Aggregation after TRAP activation, donor g ([3]; TRAP 4 μM) | Platelet aggregation remaining after TRAP (low = inhibition) [3, 7] | Phospho [4] | Aggregation before TRAP activation, donor h [1] | Aggregation before TRAP activation, donor i [1] | Aggregation before TRAP activation, donor j [1] | Aggregation after TRAP activation, donor h ([3]; TRAP 4 μM) | further results
1 | pal-KVGFFKR-(NH2) [pal-ITGA2B_JM, N-terminally palmitylated ITGA2B juxtamembrane peptide KVGFFKR] |  | 66% | 62% |  |  |  |  | 73 | 69 | 37.33 | 49.33 |  |  |  | 50 | R | 30 | 11 | 12 | 52 | Activation [1]: 17 ^*; Aggregation after TRAP activation, donor i ([3]; TRAP 4 μM): 36; Aggregation after TRAP activation, donor j ([3]; TRAP 4 μM): 64
2 | pal-LEEDDEEGE [pal-ITGA2B_tail, N-terminally palmitylated ITGA2B tail peptide] | not soluble |  |  | 2% | 2 | 3 | 2 |  |  | 65.67 | 66 | 74 | 76 | 4 | 52 |  |  |  |  |  | 
3 | tat-DPMSSTYIEELGKREVTIPPKYRELLA-(NH2) [tat-CAST_1, tat peptide from calpastatin (CAST)] |  |  |  | 3% |  |  |  |  |  | 70.33 | 70.67 |  |  |  | 72 | A | 4 | 4 | 3 | 77 | Phosphotyrosine blot density, peptide + TRAP, Average ([4]; average of 3 replicates, tat peptide 50 µM, TRAP 4 µM): 64.53; Phosphorylation in resting platelets ([4]; in words): no effect; Phosphorylation intensity of TRAP activated platelets ([4]; in words, p = 0.03): increased the phosphorylation intensity; relative density (peptide lane to activated control), replicate 1 ([4]; replicate 1): 4.12; Phosphotyrosine blot density, peptide + TRAP, replicate 1 ([4]; replicate 1, tat peptide 50 µM, TRAP 4 µM): 80; relative density (peptide lane to activated control), replicate 2 ([4]; replicate 2): 1.42; Phosphotyrosine blot density, peptide + TRAP, replicate 2 ([4]; replicate 2, tat peptide 50 µM, TRAP 4 µM): 58.7; relative density (peptide lane to activated control), replicate 3 ([4]; replicate 3): 1.22; Phosphotyrosine blot density, peptide + TRAP, replicate 3 ([4]; replicate 3, tat peptide 50 µM, TRAP 4 µM): 54.9; Aggregation after TRAP activation, donor i ([3]; TRAP 4 μM): 63; Aggregation after TRAP activation, donor j ([3]; TRAP 4 μM): 76

Second part, led by results:

Row | Solubility in deionised water [2] | Substance | Activation, 5μM ([1]; unit assumed) | Activation, 20μM ([1]; unit assumed) | Activation ([1]; unit assumed) | Aggregation before TRAP activation, donor d [1] | Aggregation before TRAP activation, donor f [1] | Aggregation before TRAP activation, donor g [1] | Platelet aggregation remaining after TRAP (low = inhibition) [3, 5] | Platelet aggregation remaining after TRAP (low = inhibition) [3, 6] | Aggregation after TRAP, peptide alone 1x (A 1x / B 1x) [3] | Aggregation after TRAP, peptide alone 2x (A 2x / B 2x) [3] | Aggregation after TRAP activation, donor d ([3]; TRAP 4 μM) | Aggregation after TRAP activation, donor f ([3]; TRAP 4 μM) | Aggregation after TRAP activation, donor g ([3]; TRAP 4 μM) | Platelet aggregation remaining after TRAP (low = inhibition) [3, 7] | Phospho [4] | Aggregation before TRAP activation, donor h [1] | Aggregation before TRAP activation, donor i [1] | Aggregation before TRAP activation, donor j [1] | Aggregation after TRAP activation, donor h ([3]; TRAP 4 μM) | further results
4 | not soluble | pal-APTNEFYA [pal-SDC4_tail, N-terminally palmitylated syndecan-4 tail peptide] | 2% | 2% | 7% | 2 | 4 | 15 | 61 | 34 | 27.67 | 24.67 | 9 | 54 | 41 |  |  |  |  |  |  | Activation, donor 14 06 13 ([1]; replicate 14_06_13, SDC4 peptides and controls, 20 μM, unit assumed): 2%; Activation, donor 18_06_13 ([1]; replicate 18_06_13, SDC4 peptides and controls, 20 μM, in % (unit assumed)): 3; Activation, donor 20_06_13 ([1]; replicate 20_06_13, SDC4 peptides and controls, 20 μM, in % (unit assumed)): 2; Activation, donor 20 08 13 ([1]; replicate 20_08_13, SDC4 peptides and controls, 20 μM, unit assumed): 5%; Activation, donor 22_08_13_DONOR1 ([1]; replicate 22_08_13_DONOR1, SDC4 peptides and controls, 20 μM): 2; Activation, donor 22_08_13_DONOR2 ([1]; replicate 22_08_13_DONOR2, SDC4 peptides and controls, 20 μM): 2; Aggregation (inhibition effects of syndecan-derived peptides) ([3]; S2 Table A, peptide 20 μM, TRAP 4 μM, mean, n=6): 34; Summary of effects of SDC4-derived palmitylated peptides and scrambled controls, 20μM ([3]; S2 Table B / S2 Fig, 20 μM, activation of resting platelets and inhibition of aggregation induced by 4 μM TRAP, in words): Inhibitor; Platelet aggregation after TRAP activation [3, 7]: 34 ^*; Inhibition, donor 14_06_13 ([3]; replicate 14_06_13, peptide 20 μM, TRAP 4 μM): 40; Inhibition, donor 18_06_13 ([3]; replicate 18_06_13, peptide 20 μM, TRAP 4 μM): 67; Inhibition, donor 20_06_13 ([3]; replicate 20_06_13, peptide 20 μM, TRAP 4 μM): 51; Inhibition, donor 20_08_13 ([3]; replicate 20_08_13, peptide 20 μM, TRAP 4 μM): 11; Platelet aggregation remaining after TRAP (low = inhibition) ([3]; replicate 22_08_13_DONOR1, peptide 20 μM, TRAP 4 μM): 6; Platelet aggregation remaining after TRAP (low = inhibition) ([3]; replicate 22_08_13_DONOR2, peptide 20 μM, TRAP 4 μM): 34
5 | not soluble | pal-KLLITIHDRKE-(NH2) [pal-ITGB3_JM, N-terminally palmitylated ITGB3 juxtamembrane peptide] |  |  | 4% | 4 | 3 | 5 |  |  |  |  | 76 | 77 | 68 | 73 |  |  |  |  |  | 
6 | not soluble | pal-TNITYRGT [pal-ITGB3_tail, N-terminally palmitylated ITGB3 tail peptide] |  |  | 3% | 2 | 5 | 3 |  |  |  |  | 74 | 77 | 63 | 71 |  |  |  |  |  | 
